Results reported in PMC3388080 (PLoS ONE, 2012).
Read-outs that look alike come from different tables or passages of the source.

What was measured:
[1] = set-up: method as in PMID 19363060; conditions: 30 mg/kg, cited from earlier work
[2] = in vitro; conditions: rat, plasma
Procedure: (§1) Pharmacokinetic analyses were performed at F. Hoffmann-La Roche as described in supporting Materials and Methods S1.
(§2) Cmax, maximum concentration; Tmax, time at which maximum concentration was observed; AUC, area under the plasma concentration vs. time curve; CL, clearance; Vss, volume of distribution at steady state; T1/2, terminal half-life; F, bioavailability; Fu, Fraction unbound. Plasma values are mean, n=2.

[3] = in vitro; conditions: human, plasma
Procedure: as §1

[4] = biological target: T1, rHCRTR1 (Rattus norvegicus, UniProt P56718); set-up: method as in PMID 14691055; conditions: cited from earlier work
T1 construct: expressed in transfected cells; host or cells: HEK293 (transient transfection, pCI-Neo vector), membrane preparation
T1 sequence (P56718 1-416): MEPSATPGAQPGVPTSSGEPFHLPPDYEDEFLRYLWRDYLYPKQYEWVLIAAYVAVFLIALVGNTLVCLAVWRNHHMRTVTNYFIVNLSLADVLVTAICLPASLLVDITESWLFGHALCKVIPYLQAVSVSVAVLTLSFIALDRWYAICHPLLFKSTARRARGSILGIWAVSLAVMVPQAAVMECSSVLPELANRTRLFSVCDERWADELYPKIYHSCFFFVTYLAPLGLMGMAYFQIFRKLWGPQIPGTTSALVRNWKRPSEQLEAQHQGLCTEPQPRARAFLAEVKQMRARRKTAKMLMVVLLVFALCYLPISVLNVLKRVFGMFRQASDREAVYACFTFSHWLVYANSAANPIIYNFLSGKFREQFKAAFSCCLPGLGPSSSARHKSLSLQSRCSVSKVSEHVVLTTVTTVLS

[5] = biological target: T2, HCRTR1 (Rattus norvegicus, UniProt P56718); set-up: method as in PMID 19363060; conditions: subcutaneous 30 mg/kg; tenia tecta; cited from earlier work
T2 construct: from tissue; host or cells: coronal brain sections of male Sprague-Dawley rats (locus coeruleus)
T2 sequence (P56718 1-416): T1 sequence (P56718 1-416)

[6] = Stability in rat plasma
Procedure: as §1

[7] = biological target: T1, rHCRTR1; experiment: Inhibition of [^3H]almorexant binding to HEK293-rHCRTR1 membranes; conditions: read-out: Ki
Source text: (§3) The rat cDNAs encoding HCRTR1 (Accession No. P56718) and HCRTR2 (Accession No. P56719) were subcloned into pCI-Neo expression vectors (Promega, Madison, WI) and used to transfect HEK293 cells (acquired commercially from ATCC-LGC, Molsheim, France) as previously described.

[8] = in vivo; conditions: rat, in vivo
Procedure: as §1, §2

[9] = biological target: T3, rHCRTR2 (Rattus norvegicus, UniProt P56719); experiment: Inhibition of [^3H]almorexant binding to HEK293-rHCRTR2 membranes
T3 construct: expressed in transfected cells; host or cells: HEK293 (transient transfection, pCI-Neo vector), membrane preparation
T3 sequence (P56719 whole entry): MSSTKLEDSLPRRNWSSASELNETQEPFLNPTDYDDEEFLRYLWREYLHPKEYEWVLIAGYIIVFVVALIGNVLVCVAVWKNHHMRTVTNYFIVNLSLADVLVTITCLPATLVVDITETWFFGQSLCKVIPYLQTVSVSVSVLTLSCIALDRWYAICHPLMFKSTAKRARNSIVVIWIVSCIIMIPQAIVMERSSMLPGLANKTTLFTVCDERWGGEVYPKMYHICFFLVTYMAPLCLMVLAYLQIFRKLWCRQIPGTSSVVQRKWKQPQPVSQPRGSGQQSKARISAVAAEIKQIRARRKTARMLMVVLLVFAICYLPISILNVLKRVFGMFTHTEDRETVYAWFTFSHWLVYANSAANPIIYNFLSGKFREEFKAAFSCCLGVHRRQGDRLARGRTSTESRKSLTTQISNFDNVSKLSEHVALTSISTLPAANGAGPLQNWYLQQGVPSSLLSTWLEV
Source text: as §3

[10] = Stability in human plasma
Procedure: as §1

fraction unbound [2]: < 0.001
fraction unbound [3]: 0.003
stability in plasma ([6]; 1 h): 101%
stability in plasma ([6]; 4 h): 107%
Ki [7]: 45.7 ± 4.1 nM
AUC/Dose ([8]; Wistar, iv): 7996.40 ng/h/mL
Tmax ([8]; Wistar, iv): 0 h
Vd ([8]; Wistar, iv): 0.2 L/kg
clearance ([8]; Wistar, iv): 2.1 mL/min/kg
half-life ([8]; Wistar, iv): 1.12 h
Cmax/Dose ([8]; Wistar, iv, 12.1 mg/kg): 4738.30 ng/mL
AUC/Dose ([8]; Wistar, po): 3455.70 ng/h/mL
Tmax ([8]; Wistar, po): 2.67 h
bioavailability ([8]; Wistar, po): 43.2%
half-life ([8]; Wistar, po): 1.95 h
Cmax/Dose ([8]; Wistar, po, 18.16 mg/kg): 704.8 ng/mL
Vss (in words) [8]: low
systemic plasma clearance (in words) [8]: low
oral bioavailability (in words) ([8]; po): medium
Ki [9]: 5370 ± 2200 nM
stability in plasma ([10]; 1 h): 94%
stability in plasma ([10]; 4 h): 88%
Structure (SMILES): Cc1cc(NC(=O)Nc2ccc(N(C)C)cc2)c2cc(F)cc(F)c2n1 [SB-408124, 1-(6,8-difluoro-2-methyl-quinolin-4-yl)-3-(4-dimethylamino-phenyl)-urea]
brain-to-plasma ratio ([1]; calculated from Cmax values): 0.012
Cmax ([1]; read-out: plasma Cmax): 84.3 µM
Ki [4]: 26.9 nM
HCRTR1 occupancy [5]: 90%
